According to US20250320206A1, “STAT6 DEGRADERS” (Gilead Sciences, Inc., priority 2024, published 2025):

Each compound was assayed on Eotaxin-3 release in human whole blood stimulated with IL-4 (assay: Human Whole Blood Eotaxin-3 Assay (IL-4 stimulated eotaxin-3 release)). Conditions: IL-4 stimulation, 48 h, values given for compounds with >80% Emax, geometric mean.
Format: cell-based
Protocol: Human Whole Blood Eotaxin-3 Assay
This was a human whole blood assay using recombinant human Interleukin 4 to stimulate the blood and measuring the ability of the test compounds to inhibit eotaxin-3 release. The biological activities of the test compounds have been tested in human whole blood stimulated with IL-4 measuring Eotaxin-3 release. The test compounds were added to 384 well clear flat-bottom plate in a 4-fold serial dilution in triplicates using a liquid handler. Human whole blood stabilized in lithium-heparin tubes was added in a volume of 65 μL per well, resulting in a final DMSO concentration of 0.5%. The plate is incubated for 2 h at 37° C. under 5% CO2/95% air. Subsequently, 5 μL of recombinant human IL-4 (R&D Systems, cat #204-ILB) was added to the wells to a final concentration of […]. The plate was incubated for 48 h at 37° C. under 5% CO2/95% air. The plate was spun down for 10 minutes at 500×g and 20 μL supernatant was harvested and transferred to a 384 well v-bottom plate using a liquid handler and stored at −20° C. until further analysis. 10 μL supernatant was used to measure the level of Eotaxin-3 (CCL26) using Human Eotaxin-3 MSD kit from Mesocsale (Cat #K251UEK-4). The assay was performed according to the manufacture instructions.
The data from the human whole blood eotaxin-3 assay is shown in FIG. 2 for Examples 3u208, 3u246, 3u118, 3u119, 3u120, and 3u74 (where the effect in % is plotted against the test concentration in M on a log scale).

Going from CNc1cc(=O)n(-c2ccnc3c2cc([C@H](C)N2CC=C(c4c(C)cc(C(=O)N5CCC(CN6CCC(c7ccc8c(c7)C7(CC7)C(=O)N8C7CCC(=O)NC7=O)CC6)CC5)cc4F)CC2)n3C)cc1F (stereo partly drawn) [Example 3u282, 3-(5′-(1-((1-(3-fluoro-4-(1-((S)-1-(4-(5-fluoro-4-(methylamino)-2-oxopyridin-1 (2H)-yl)-1-methyl-1H-pyrrolo[2,3-b]pyridin-2-yl)ethyl)-1,2,3,6-tetrahydropyridin-4-yl)-5-methylbenzoyl)-piperidin-4-yl)methyl)piperidin-4-yl)-2′-oxospiro[cyclopropane-1,3′-indolin]-1′-yl)piperidine-2,6-dione] to CNc1cc(=O)n(-c2ccnc3c2cc(CN2CCC(c4c(F)cc(C(=O)N5CCC(CN6CCN(c7ccc8c(c7)C7(CC7)C(=O)N8[C@H]7CCC(=O)NC7=O)CC6)CC5)cc4F)CC2)n3C)cc1F (single isomer, unassigned) [Example 3u288], the EC50 rises from 6.9 nM to 88.3 nM (13-fold). The first is the more potent here.

CNc1ccn(-c2ccnc3c2cc(CN2CCC(c4c(F)cc(C(=O)N5CCC(CN6CCN(c7cc8c(cc7F)n(C7CCC(=O)NC7=O)c(=O)n8C)CC6)CC5)cc4F)CC2)n3C)c(=O)c1 (stereo not shown) [Example 3u270, 3-(5-(4-((1-(3,5-difluoro-4-(1-((1-methyl-4-(4-(methylamino)-2-oxopyridin-1 (2H)-yl)-1H-pyrrolo[2,3-b]pyridin-2-yl)methyl)piperidin-4-yl)benzoyl)piperidin-4-yl)methyl)piperazin-1-yl)-6-fluoro-3-methyl-2-oxo-2,3-dihydro-1H-benzo[d]imidazol-1-yl)piperidine-2,6-dione] was tested, and the EC50 was 26.8 nM.

Each compound was assayed against T1, STAT6 (Homo sapiens, UniProt P42226) (assay: Stat6 Degrader Assay (HiBiT based, HeLa LgBiT clone 4.14)). Conditions: HeLa LgBiT clone 4.14 HiBiT-STAT6, 4-24 h incubation; read-out: STAT6 degradation Emax.
T1 construct: These cells express endogenous STAT6; host or cells: HeLa LgBiT clone 4.14
T1 sequence (P42226 1-847): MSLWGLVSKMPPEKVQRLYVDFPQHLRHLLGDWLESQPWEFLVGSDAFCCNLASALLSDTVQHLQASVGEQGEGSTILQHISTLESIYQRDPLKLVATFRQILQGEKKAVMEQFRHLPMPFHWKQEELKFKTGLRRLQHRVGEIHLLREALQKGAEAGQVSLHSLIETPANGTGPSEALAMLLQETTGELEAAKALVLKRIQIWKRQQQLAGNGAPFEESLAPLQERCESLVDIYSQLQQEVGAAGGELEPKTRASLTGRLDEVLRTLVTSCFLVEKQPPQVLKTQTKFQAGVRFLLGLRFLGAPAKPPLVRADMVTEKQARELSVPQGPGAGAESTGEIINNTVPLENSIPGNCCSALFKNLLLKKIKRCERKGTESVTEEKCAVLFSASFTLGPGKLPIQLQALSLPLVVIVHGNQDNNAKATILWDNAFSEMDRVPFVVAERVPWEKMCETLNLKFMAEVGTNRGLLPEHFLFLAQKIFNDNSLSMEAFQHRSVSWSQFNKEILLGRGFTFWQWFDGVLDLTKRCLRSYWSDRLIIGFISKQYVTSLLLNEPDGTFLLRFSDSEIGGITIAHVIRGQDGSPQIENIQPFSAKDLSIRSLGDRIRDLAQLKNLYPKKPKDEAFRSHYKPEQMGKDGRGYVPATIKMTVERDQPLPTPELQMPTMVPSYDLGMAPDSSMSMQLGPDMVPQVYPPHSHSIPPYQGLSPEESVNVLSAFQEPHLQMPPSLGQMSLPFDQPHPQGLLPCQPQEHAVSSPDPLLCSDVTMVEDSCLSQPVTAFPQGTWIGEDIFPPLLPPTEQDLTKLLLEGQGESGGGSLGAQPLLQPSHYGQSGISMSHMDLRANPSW
Format: cell-based
Outline: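 Luminescence from HiBiT-STAT6 complementing stably expressed LgBiT in HeLa clone 4.14 reports remaining STAT6 protein. Cells (5000/well) exposed to compound for 4-24 h at 37° C; read 0.5 h after Nano-Glo addition. 100% degradation window set with 50 μM terfenadine; percent degradation plotted against concentration.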

First: CNc1nc(=O)n(-c2ccnc3c2cc(CN2CCC(c4c(F)cc(C(=O)N5CCC(CN6CCN(c7cc8c(cc7F)n(C7CCC(=O)NC7=O)c(=O)n8C)CC6)CC5)cc4F)CC2)n3C)cc1F (stereo not shown) [Example 3u261, 3-(5-(4-((1-(3,5-difluoro-4-(1-((4-(5-fluoro-4-(methylamino)-2-oxopyrimidin-1 (2H)-yl)-1-methyl-1H-pyrrolo[2,3-b]pyridin-2-yl)methyl)piperidin-4-yl)benzoyl)piperidin-4-yl)methyl)piperazin-1-yl)-6-fluoro-3-methyl-2-oxo-2,3-dihydro-1H-benzo[d]imidazol-1-yl)piperidine-2,6-dione]
Second: CNc1cc(=O)n(-c2ccnc3c2cc(CN2CCC(c4c(F)cc(C(=O)N5CCC(OCC#Cc6ccc7c(c6)n(C)c(=O)n7C6CCC(=O)NC6=O)CC5)cc4F)CC2)n3C)cc1F (stereo not shown) [Example 3u262, 3-(5-(3-((1-(3,5-difluoro-4-(1-((4-(5-fluoro-4-(methylamino)-2-oxopyridin-1 (2H)-yl)-1-methyl-1H-pyrrolo[2,3-b]pyridin-2-yl)methyl)piperidin-4-yl)benzoyl)piperidin-4-yl)oxy)prop-1-yn-1-yl)-3-methyl-2-oxo-2,3-dihydro-1H-benzo[d]imidazol-1-yl)piperidine-2,6-dione]
The Emax of the first is lower: < 20% for the first, 30 to 40% for the second.

Compound CNc1cc(=O)n(-c2ccnc3c2cc([C@H](C)N2CC=C(c4c(C)cc(C(=O)N5CCC(CN6CCN(Cc7ccc8c(c7)n(C7CC7)c(=O)n8C7CCC(=O)NC7=O)C[C@@H]6C)CC5)cc4F)CC2)n3C)cc1OC (stereo partly drawn) [Example 3u134, 3-(3-cyclopropyl-5-(((S)-4-((1-(3-fluoro-4-(1-((S)-1-(4-(5-methoxy-4-(methylamino)-2-oxopyridin-1 (2H)-yl)-1-methyl-1H-pyrrolo[2,3-b]pyridin-2-yl)ethyl)-1,2,3,6-tetrahydropyridin-4-yl)-5-methylbenzoyl)piperidin-4-yl)methyl)-3-methylpiperazin-1-yl)methyl)-2-oxo-2,3-dihydro-1H-benzo[d]imidazol-1-yl)piperidine-2,6-dione] has an Emax of 20 to 30%.

Same assay, conditions: HeLa LgBiT clone 4.14 HiBiT-STAT6, 4-24 h incubation; values given for compounds with >80% Emax; geometric mean; read-out: STAT6 degradation DC50

Going from CNc1ccn(-c2ccnc3c2cc([C@H](C)N2CC=C(c4c(C)cc(C(=O)N5CCC(CN6CCN(Cc7ccc8c(c7)C(F)(F)C(=O)N8C7CCC(=O)NC7=O)CC6)CC5)cc4F)CC2)n3C)c(=O)c1 (stereo partly drawn) [Example 3u255, 3-(3,3-difluoro-5-((4-((1-(3-fluoro-5-methyl-4-(1-((S)-1-(1-methyl-4-(4-(methylamino)-2-oxopyridin-1 (2H)-yl)-1H-pyrrolo[2,3-b]pyridin-2-yl)ethyl)-1,2,3,6-tetrahydropyridin-4-yl)benzoyl)piperidin-4-yl)methyl)piperazin-1-yl)methyl)-2-oxoindolin-1-yl)piperidine-2,6-dione] to CNc1ccn(-c2ccnc3c2cc([C@H](C)N2CC=C(c4c(C)cc(C(=O)N5CCC(CN6CCN(Cc7cc8c(cc7F)n(C7CCC(=O)NC7=O)c(=O)n8C)CC6)CC5)cc4F)CC2)n3C)c(=O)c1 (stereo partly drawn) [Example 3u10, 3-(6-fluoro-5-((4-((1-(3-fluoro-5-methyl-4-(1-((S)-1-(1-methyl-4-(4-(methylamino)-2-oxopyridin-1 (2H)-yl)-1H-pyrrolo[2,3-b]pyridin-2-yl)ethyl)-1,2,3,6-tetrahydropyridin-4-yl)benzoyl)-piperidin-4-yl)methyl)piperazin-1-yl)methyl)-3-methyl-2-oxo-2,3-dihydro-1H-benzo[d]imidazol-1-yl)piperidine-2,6-dione], the DC50 falls from 13.7 nM to 0.6 nM (23-fold).

First: CNc1ccn(-c2ccnc3c2cc(CN2CC=C(c4c(F)cc(C(=O)N5CCC(CN6CCN(Cc7ccc8c(c7)n(C)c(=O)n8[C@H]7CCC(=O)NC7=O)C[C@@H]6C)CC5)cc4F)CC2)n3C)c(=O)c1 (single isomer, unassigned) [Example 3u2]
Second: CNc1ccn(-c2ccnc3c2cc([C@H](C)N2CC=C(c4c(C)cc(C(=O)N5CCC(CN6CCN(Cc7cc8c(cc7F)n([C@@H]7CCC(=O)NC7=O)c(=O)n8C7CC7)C[C@@H]6C)CC5)cc4F)CC2)n3C)c(=O)c1 (single isomer, unassigned) [Example 3u168]
The DC50 of the first is 2-fold higher: 4.3 nM for the first, 2.1 nM for the second.

CNc1cc(=O)n(-c2ccnc3c2cc([C@H](C)N2CC=C(c4c(C)cc(C(=O)N5CCC(F)(CC6CCN(c7ccc8c(c7)C7(CC7)C(=O)N8C7CCC(=O)NC7=O)CC6)CC5)cc4F)CC2)n3C)cc1F (stereo partly drawn) [Example 3u21, 3-(5′-(4-((4-fluoro-1-(3-fluoro-4-(1-((S)-1-(4-(5-fluoro-4-(methylamino)-2-oxopyridin-1 (2H)-yl)-1-methyl-1H-pyrrolo[2,3-b]pyridin-2-yl)ethyl)-1,2,3,6-tetrahydropyridin-4-yl)-5-methylbenzoyl)piperidin-4-yl)methyl)piperidin-1-yl)-2′-oxospiro[cyclopropane-1,3′-indolin]-1′-yl)-piperidine-2,6-dione] and Cc1cc(C(=O)N2CCC(CN3CCN(Cc4cc5c(cc4F)n([C@H]4CCC(=O)NC4=O)c(=O)n5C4CC4)C[C@@H]3C)CC2)cc(F)c1C1=CCN([C@@H](C)c2cc3c(-n4ccc5c(c4=O)CCN5)ccnc3n2C)CC1 (single isomer, unassigned) [Example 3u132] are within 1.5-fold of each other in DC50: 0.4 nM for the first, 0.5 nM for the second.

For CNc1ccn(-c2ccnc3c2cc([C@H](C)N2CC=C(c4c(C)cc(C(=O)N5CCn6c(nnc6C6CCN(Cc7ccc8c(c7)n(C)c(=O)n8C7CCC(=O)NC7=O)CC6)C5)cc4F)CC2)n3C)c(=O)c1 (stereo partly drawn) [Example 3u275, 3-(5-((4-(7-(3-fluoro-5-methyl-4-(1-((S)-1-(1-methyl-4-(4-(methylamino)-2-oxopyridin-1 (2H)-yl)-1H-pyrrolo[2,3-b]pyridin-2-yl)ethyl)-1,2,3,6-tetrahydropyridin-4-yl)benzoyl)-5,6,7,8-tetrahydro-[1,2,4]triazolo[4,3-a]pyrazin-3-yl)piperidin-1-yl)methyl)-3-methyl-2-oxo-2,3-dihydro-1H-benzo[d]imidazol-1-yl)piperidine-2,6-dione], the DC50 was 57.4 nM.
